# Results: the NIST ThermoML archive (doi:10.1016/j.fluid.2007.12.007)
# ± gives the expanded uncertainty stated by the source.
# Assay: xn = mol fraction of the nth substance listed
# Conditions: 101 kPa, Liquid
compound,measurement,setting,value
"OCCCCO [1,4-butanediol] + NC=O",speed of sound,"293.15 K, x2 = 0.1052",1606 ± 3.4 m/s
same,viscosity,"293.15 K, x2 = 0.1052",64.53 ± 1.2 mPa·s
same,speed of sound,"293.15 K, x2 = 0.1988",1594.7 ± 3.3 m/s
same,viscosity,"293.15 K, x2 = 0.1988",44 ± 0.73 mPa·s
same,speed of sound,"293.15 K, x2 = 0.3041",1585.7 ± 3.3 m/s
same,viscosity,"293.15 K, x2 = 0.3041",30.1 ± 0.51 mPa·s
same,speed of sound,"293.15 K, x2 = 0.4002",1577.7 ± 3.3 m/s
same,viscosity,"293.15 K, x2 = 0.4002",21.2 ± 0.37 mPa·s
same,speed of sound,"293.15 K, x2 = 0.5009",1572.5 ± 3.3 m/s
same,viscosity,"293.15 K, x2 = 0.5009",15.13 ± 0.27 mPa·s
same,speed of sound,"293.15 K, x2 = 0.6022",1569.9 ± 3.3 m/s
same,viscosity,"293.15 K, x2 = 0.6022",11.33 ± 0.21 mPa·s
same,speed of sound,"293.15 K, x2 = 0.6992",1574.7 ± 3.3 m/s
same,viscosity,"293.15 K, x2 = 0.6992",7.998 ± 0.16 mPa·s
same,speed of sound,"293.15 K, x2 = 0.8051",1583.7 ± 3.3 m/s
same,viscosity,"293.15 K, x2 = 0.8051",5.512 ± 0.12 mPa·s
same,speed of sound,"293.15 K, x2 = 0.905",1597.1 ± 3.3 m/s
same,viscosity,"293.15 K, x2 = 0.905",4.026 ± 0.089 mPa·s
same,speed of sound,"298.15 K, x2 = 0.1052",1592.6 ± 3.3 m/s
same,viscosity,"298.15 K, x2 = 0.1052",48.08 ± 0.8 mPa·s
same,speed of sound,"298.15 K, x2 = 0.1988",1579.2 ± 3.3 m/s
same,viscosity,"298.15 K, x2 = 0.1988",31.14 ± 0.53 mPa·s
same,speed of sound,"298.15 K, x2 = 0.3041",1568.5 ± 3.3 m/s
same,viscosity,"298.15 K, x2 = 0.3041",19.82 ± 0.35 mPa·s
same,speed of sound,"298.15 K, x2 = 0.4002",1560.2 ± 3.3 m/s
same,viscosity,"298.15 K, x2 = 0.4002",12.5 ± 0.23 mPa·s
same,speed of sound,"298.15 K, x2 = 0.5009",1553.9 ± 3.2 m/s
same,viscosity,"298.15 K, x2 = 0.5009",8.021 ± 0.16 mPa·s
same,speed of sound,"298.15 K, x2 = 0.6022",1551.3 ± 3.2 m/s
same,viscosity,"298.15 K, x2 = 0.6022",6.233 ± 0.13 mPa·s
same,speed of sound,"298.15 K, x2 = 0.6992",1556 ± 3.2 m/s
same,viscosity,"298.15 K, x2 = 0.6992",4.971 ± 0.11 mPa·s
same,speed of sound,"298.15 K, x2 = 0.8051",1565.5 ± 3.2 m/s
same,viscosity,"298.15 K, x2 = 0.8051",3.96 ± 0.088 mPa·s
same,speed of sound,"298.15 K, x2 = 0.905",1580.5 ± 3.3 m/s
same,viscosity,"298.15 K, x2 = 0.905",3.372 ± 0.075 mPa·s
same,speed of sound,"303.15 K, x2 = 0.1052",1580.1 ± 3.3 m/s
same,viscosity,"303.15 K, x2 = 0.1052",38.03 ± 0.64 mPa·s
same,speed of sound,"303.15 K, x2 = 0.1988",1565.3 ± 3.3 m/s
same,viscosity,"303.15 K, x2 = 0.1988",24.03 ± 0.41 mPa·s
same,speed of sound,"303.15 K, x2 = 0.3041",1553.4 ± 3.3 m/s
same,viscosity,"303.15 K, x2 = 0.3041",13.42 ± 0.24 mPa·s
same,speed of sound,"303.15 K, x2 = 0.4002",1544.2 ± 3.2 m/s
same,viscosity,"303.15 K, x2 = 0.4002",7.715 ± 0.15 mPa·s
same,speed of sound,"303.15 K, x2 = 0.5009",1537.7 ± 3.2 m/s
same,viscosity,"303.15 K, x2 = 0.5009",4.771 ± 0.11 mPa·s
same,speed of sound,"303.15 K, x2 = 0.6022",1534.5 ± 3.2 m/s
same,viscosity,"303.15 K, x2 = 0.6022",3.722 ± 0.083 mPa·s
same,speed of sound,"303.15 K, x2 = 0.6992",1539.5 ± 3.2 m/s
same,viscosity,"303.15 K, x2 = 0.6992",3.062 ± 0.069 mPa·s
same,speed of sound,"303.15 K, x2 = 0.8051",1550 ± 3.2 m/s
same,viscosity,"303.15 K, x2 = 0.8051",2.658 ± 0.06 mPa·s
same,speed of sound,"303.15 K, x2 = 0.905",1566.3 ± 3.2 m/s
same,viscosity,"303.15 K, x2 = 0.905",2.754 ± 0.062 mPa·s
same,speed of sound,"308.15 K, x2 = 0.1052",1568.8 ± 3.3 m/s
same,viscosity,"308.15 K, x2 = 0.1052",30.12 ± 0.51 mPa·s
same,speed of sound,"308.15 K, x2 = 0.1988",1552 ± 3.3 m/s
same,viscosity,"308.15 K, x2 = 0.1988",18.56 ± 0.33 mPa·s
same,speed of sound,"308.15 K, x2 = 0.3041",1539.2 ± 3.2 m/s
same,viscosity,"308.15 K, x2 = 0.3041",9.498 ± 0.18 mPa·s
same,speed of sound,"308.15 K, x2 = 0.4002",1529.4 ± 3.2 m/s
same,viscosity,"308.15 K, x2 = 0.4002",4.663 ± 0.1 mPa·s
same,speed of sound,"308.15 K, x2 = 0.5009",1522.1 ± 3.2 m/s
same,viscosity,"308.15 K, x2 = 0.5009",2.696 ± 0.062 mPa·s
same,speed of sound,"308.15 K, x2 = 0.6022",1518.6 ± 3.2 m/s
same,viscosity,"308.15 K, x2 = 0.6022",2.188 ± 0.051 mPa·s
same,speed of sound,"308.15 K, x2 = 0.6992",1524 ± 3.2 m/s
same,viscosity,"308.15 K, x2 = 0.6992",1.87 ± 0.044 mPa·s
same,speed of sound,"308.15 K, x2 = 0.8051",1534.8 ± 3.2 m/s
same,viscosity,"308.15 K, x2 = 0.8051",1.924 ± 0.045 mPa·s
same,speed of sound,"308.15 K, x2 = 0.905",1552.1 ± 3.2 m/s
same,viscosity,"308.15 K, x2 = 0.905",2.366 ± 0.054 mPa·s
same,speed of sound,"313.15 K, x2 = 0.1052",1558.4 ± 3.3 m/s
same,viscosity,"313.15 K, x2 = 0.1052",23.74 ± 0.41 mPa·s
same,speed of sound,"313.15 K, x2 = 0.1988",1539.9 ± 3.2 m/s
same,viscosity,"313.15 K, x2 = 0.1988",13.81 ± 0.25 mPa·s
same,speed of sound,"313.15 K, x2 = 0.3041",1525.4 ± 3.2 m/s
same,viscosity,"313.15 K, x2 = 0.3041",6.541 ± 0.14 mPa·s
same,speed of sound,"313.15 K, x2 = 0.4002",1514.6 ± 3.2 m/s
same,viscosity,"313.15 K, x2 = 0.4002",2.871 ± 0.066 mPa·s
same,speed of sound,"313.15 K, x2 = 0.5009",1506.5 ± 3.2 m/s
same,viscosity,"313.15 K, x2 = 0.5009",1.619 ± 0.038 mPa·s
same,speed of sound,"313.15 K, x2 = 0.6022",1503 ± 3.2 m/s
same,viscosity,"313.15 K, x2 = 0.6022",1.272 ± 0.031 mPa·s
same,speed of sound,"313.15 K, x2 = 0.6992",1508 ± 3.2 m/s
same,viscosity,"313.15 K, x2 = 0.6992",1.079 ± 0.027 mPa·s
same,speed of sound,"313.15 K, x2 = 0.8051",1519.6 ± 3.2 m/s
same,viscosity,"313.15 K, x2 = 0.8051",1.525 ± 0.036 mPa·s
same,speed of sound,"313.15 K, x2 = 0.905",1537.9 ± 3.2 m/s
same,viscosity,"313.15 K, x2 = 0.905",1.998 ± 0.046 mPa·s
same,speed of sound,"318.15 K, x2 = 0.1052",1546.2 ± 3.3 m/s
same,viscosity,"318.15 K, x2 = 0.1052",18.95 ± 0.33 mPa·s
same,speed of sound,"318.15 K, x2 = 0.1988",1525.7 ± 3.2 m/s
same,viscosity,"318.15 K, x2 = 0.1988",10.75 ± 0.2 mPa·s
same,speed of sound,"318.15 K, x2 = 0.3041",1510.2 ± 3.2 m/s
same,viscosity,"318.15 K, x2 = 0.3041",5.094 ± 0.11 mPa·s
same,speed of sound,"318.15 K, x2 = 0.4002",1498.6 ± 3.2 m/s
same,viscosity,"318.15 K, x2 = 0.4002",2.024 ± 0.047 mPa·s
same,speed of sound,"318.15 K, x2 = 0.5009",1490.6 ± 3.2 m/s
same,viscosity,"318.15 K, x2 = 0.5009",1.167 ± 0.029 mPa·s
same,speed of sound,"318.15 K, x2 = 0.6022",1486.8 ± 3.1 m/s
same,viscosity,"318.15 K, x2 = 0.6022",1.003 ± 0.025 mPa·s
same,speed of sound,"318.15 K, x2 = 0.6992",1491.7 ± 3.1 m/s
same,viscosity,"318.15 K, x2 = 0.6992",0.9823 ± 0.025 mPa·s
same,speed of sound,"318.15 K, x2 = 0.8051",1503.8 ± 3.2 m/s
same,viscosity,"318.15 K, x2 = 0.8051",1.242 ± 0.03 mPa·s
same,speed of sound,"318.15 K, x2 = 0.905",1524 ± 3.2 m/s
same,viscosity,"318.15 K, x2 = 0.905",1.706 ± 0.04 mPa·s
